Data reported in patent US10111882B2, “SYK inhibitors” (Gilead Sciences, Inc., priority 2016, dated 2018).
Several values for one entry are separate records, joined by “and”; a condition that tells them apart may be missing. Equal values may be shown once.

What was measured:
[1] = clinical; Nijjar J. S., et al., Rheumatology 2013; cited from earlier work
[2] = tested on: patients with previously untreated AML; assay: Phase 1b/2 study (NCT02343939): absolute neutrophil counts / neutrophil recovery (FIG. 1)
Source text: (§1) Patients with residual disease two weeks after chemotherapy received a second induction cycle identical to the first.

[3] = tested on: patients with previously untreated AML; assay: Phase 1b/2 study (NCT02343939): platelet counts and platelet transfusions (FIG. 2, FIG. 3); assay type: in vivo, human; conditions: for mean number of platelet transfusions required per subject: across monotherapy lead-in and induction cycles; for mean number of transfusions required per subject: induction treatment
Source text: as §1

[4] = tested on: patients with previously untreated AML; assay: Phase 1b/2 study (NCT02343939): tolerability, dose limiting toxicity and adverse events
Source text: as §1

[5] = tested on: patients with previously untreated AML; assay: Phase 1b/2 study (NCT02343939): response (complete remission) to entospletinib monotherapy lead-in followed by daunorubicin/cytarabine induction; assay type: in vivo, human
Source text: as §1

Structure (SMILES): COc1cc(Nc2ncc(F)c(Nc3ccc4c(n3)N(COP(=O)(O)O)C(=O)C(C)(C)O4)n2)cc(OC)c1OC [Fostamatinib]
- adverse side effects [1]: hypertension, neutropenia and transaminitis

Structure (SMILES): c1cn2cc(-c3ccc4cn[nH]c4c3)nc(Nc3ccc(N4CCOCC4)cc3)c2n1 [entospletinib]
- recovery time from severe neutropenia ([2]; 200 mg dose level, only evaluable subject with severe neutropenia at baseline): 66 days
- ANC recovered to during treatment ([2]; 400 mg dose level, all three evaluable subjects under severe neutropenia cutoff of 200/μL ANC at baseline): above 200 /μL
- individual time to recovery from severe neutropenia ([2]; 400 mg dose level, individual subjects with severe neutropenia at baseline): 8 days (2×) and 14 days
- subjects experiencing severe neutropenia during monotherapy lead-in ([2]; 400 mg dose level, subjects without severe neutropenia at baseline, recovered to above 200/μL by end of first induction cycle): two of the five subjects
- median (Q1, Q3) time to recovery from severe neutropenia ([2]; 400 mg dose level, three subjects with severe neutropenia at baseline): 8 (8, 14) days
- absolute neutrophil counts (ANC) ([2]; entospletinib monotherapy lead-in period): remained largely stable
- severe neutropenia during induction treatment ([2]; five subjects (both dose levels) without severe neutropenia at baseline): none experienced severe neutropenia
- platelet transfusions during monotherapy window ([3]; 200 mg dose level): One subject received platelet transfusions
- platelet transfusions during monotherapy window ([3]; 400 mg dose level): no transfusions were required
- mean number of platelet transfusions required per subject ([3]; 200 mg dose level): 8.7
- mean number of platelet transfusions required per subject ([3]; 400 mg dose level): 4.1
- mean number of platelet transfusions required per subject ([3]; overall (both dose levels)): 5.5
- platelet response during the window period ([3]; another patient with 11q23-rearranged AML, monotherapy window): significant platelet response
- mean number of transfusions required per subject ([3]; Cycle 1 (with daunorubicin/cytarabine)): 4.1
- mean number of transfusions required per subject ([3]; Cycle 2 (with daunorubicin/cytarabine)): 5.5
- platelet count ([3]; two week entospletinib monotherapy window): remained stable, or in some cases, improved from baseline
- dose limiting toxicity (DLT) ([4]; 200 mg BID po, three patients): no DLT was observed
- dose limiting toxicity (DLT) ([4]; 400 mg BID po, 3 additional patients (DL 1 expansion)): none of whom experienced DLT
- adverse event possibly related to entospletinib ([4]; 400 mg BID po, one of three patients (documented fungal pneumonia), did not meet DLT criteria): grade 3 pneumonitis
- tolerability of single-agent entospletinib ([4]; monotherapy window period (up to 14 days), before chemotherapy): well tolerated
- most common non hematologic adverse events ([4]; overall, inclusive of intensive chemotherapy periods (daunorubicin + cytarabine)): febrile neutropenia, nausea, and diarrhea
- patients requiring a second induction ([5]; 200 mg BID, 3 patients): two required a second induction
- patients requiring a second induction ([5]; 400 mg BID, 6 patients): none required a second induction
- response after the 14 day entospletinib monotherapy window ([5]; person with 11q23-rearranged AML, prior to chemotherapy): morphologic and cytogenetic CR
